# Measured values reported in patent US20250312499A1, “KISSPEPTIN RECEPTOR (KISS1R) TARGETED THERAPEUTICS AND USES THEREOF” (priority 2024, published 2025).
# Numbered stars: 1 amine (or outer) side, 2 acyl side, 3 side chain; on linkers, the order of the positions; unused ones are H or OH. Square brackets hold non-standard residues; d marks the D form. Peptide text beside a SMILES is read from it. * marks the point of attachment. X8 = COCCOCCOCCOCCOCCOCCOCCOCCOCCOCCOCCOCCOCCOCCOCCOCCOCCOCCOCCOCCOCCOCCOCCOCCOCCC(=O)*; DOTA = O=C(O)CN1CCN(CC(=O)O)CCN(CC(=O)*)CCN(CC(=O)O)CC1; Ala(9-anthryl) = N[C@@H](Cc1c2ccccc2cc2ccccc12)C(=O)O; Gly(N-(3-F-4-Me-benzyl)) = Cc1ccc(CNCC(=O)*)cc1F; Bpa = N[C@@H](Cc1ccc(C(=O)c2ccccc2)cc1)C(=O)O; Api(1-amidino) = N=C(N)N1CCC(N)(C(=O)O)CC1; Hydrocinnamoyl(4-Me) = Cc1ccc(CCC(=O)*)cc1; X14 = O=C([C@H]1CC[C@@H](CN[*:1])CC1)[*:2]; Hydrocinnamoyl(4-I) = O=C(CCc1ccc(I)cc1)*; X3 = CNC(=N)N1CCC(N[*:1])(C(=O)[*:2])CC1; Phe(3-F) = N[C@@H](Cc1cccc(F)c1)C(=O)O; Phe(4-I) = N[C@@H](Cc1ccc(I)cc1)C(=O)O; d2Nal = N[C@H](Cc1ccc2ccccc2c1)C(=O)O; Trx = NC[C@H]1CC[C@H](C(=O)O)CC1; 4Pal = N[C@@H](Cc1ccncc1)C(=O)O; d4Pal = N[C@H](Cc1ccncc1)C(=O)O; 4Amb = NCc1ccc(C(=O)O)cc1; Octanoyl = CCCCCCCC(=O)*; Api = NC1(C(=O)O)CCNCC1; PEG2 = NCCOCCOCCC(=O)O; Ahx = NCCCCCC(=O)O; azaGly = NNC(=O)O
# Biological target: human kisspeptin receptor (Homo sapiens (Human), UniProt Q969F8)
# Sequence (Q969F8 whole entry): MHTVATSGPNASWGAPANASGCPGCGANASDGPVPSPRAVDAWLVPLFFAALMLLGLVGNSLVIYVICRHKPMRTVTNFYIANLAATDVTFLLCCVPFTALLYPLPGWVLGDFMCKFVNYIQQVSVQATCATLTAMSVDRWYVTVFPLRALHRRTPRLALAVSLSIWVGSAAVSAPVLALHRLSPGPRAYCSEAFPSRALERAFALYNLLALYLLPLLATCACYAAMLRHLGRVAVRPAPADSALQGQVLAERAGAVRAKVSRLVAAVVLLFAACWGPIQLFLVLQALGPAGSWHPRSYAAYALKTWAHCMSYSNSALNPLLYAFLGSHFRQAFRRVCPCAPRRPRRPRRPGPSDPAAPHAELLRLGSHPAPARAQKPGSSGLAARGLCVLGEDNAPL
# Experiment: Human KISS1R binding assay (membrane competition binding)
# Details: 90 min at room temperature; competition with 0.2 nM [125I]-metastin (45-54); Flp-In T-Rex 293 kisspeptin membranes; metal complexes nonradioactive Ga, In, Lu; read-out: hKiSSR Binding Ki (90 min)
# Procedure, shortened: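 Radioligand competition: 0.2 nM [125I]-metastin (45-54) displaced by test ligand (usually 0–10,000 nM) over 90 min at room temperature, pH 7.4 buffer with 0.1% BSA. Receptor source is crude membrane (5–10 μg) from tetracycline-induced Flp-In T-Rex 293 cells. Bound label filtered and counted; Ki from non-linear regression.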
row,Ki [nM],SMILES
1,< 10,Cc1ccc(CNCC(=O)N2CCC(NC(=O)[C@H](CC(C)C)NC(=O)NNC(=O)[C@H](Cc3ccccc3)NC(=O)[C@H]3CC[C@H](CNC(=O)[C@@H](CCC(=O)O)NC(=O)CN4CCN(CC(=O)O)CCN(CC(=O)O)CCN(CC(=O)O)CC4)CC3)(C(=O)N[C@@H](Cc3c[nH]c4ccccc34)C(N)=O)CC2)cc1F [Compound 166] ({DOTA}-[dE][Trx]F[azaGly]L[Api](Gly(N-(3-F-4-Me-benzyl)))W-NH2)
2,< 10,CSCC[C@H](NC(=O)c1ccc(CNC(=O)CN2CCN(CC(=O)O)CCN(CC(=O)O)CCN(CC(=O)O)CC2)cc1)C(=O)N[C@@H](Cc1c[nH]c2ccccc12)C(=O)N[C@@H](CCCCNC(=O)CCCCC(=O)N[C@@H](CC(N)=O)C(=O)N[C@H](C(=O)N[C@@H](Cc1ccccc1)C(=O)NNC(=O)N[C@@H](CC(C)C)C(=O)NC1(C(=O)N[C@@H](Cc2c[nH]c3ccccc23)C(N)=O)CCN(C(=O)CNCc2ccc(C)c(F)c2)CC1)[C@@H](C)O)C(=O)O [Compound 168]
3,< 10,Cc1ccc(CNCC(=O)N2CCC(NC(=O)[C@H](CC(C)C)NC(=O)NNC(=O)[C@H](Cc3cccc(F)c3)NC(=O)[C@@H](NC(=O)[C@H](CC(N)=O)NC(=O)CCCCCNC(=O)CN3CCN(CC(=O)O)CCN(CC(=O)O)CCN(CC(=O)O)CC3)[C@@H](C)O)(C(=O)N[C@@H](Cc3ccncc3)C(N)=O)CC2)cc1F [Compound 169] ({DOTA-Ahx}-NT[Phe(3-F)][azaGly]L[Api](Gly(N-(3-F-4-Me-benzyl)))[4Pal]-NH2)
4,< 10,Cc1ccc(CNCC(=O)N2CCC(NC(=O)[C@H](CC(C)C)NC(=O)NNC(=O)[C@H](Cc3cccc(F)c3)NC(=O)[C@@H](NC(=O)[C@H](CC(N)=O)NC(=O)[C@H](CCC(=O)O)NC(=O)[C@H]3CC[C@@H](CNC(=O)CN4CCN(CC(=O)O)CCN(CC(=O)O)CCN(CC(=O)O)CC4)CC3)[C@@H](C)O)(C(=O)N[C@@H](Cc3ccncc3)C(N)=O)CC2)cc1F [Compound 170] ({DOTA}-[X14]ENT[Phe(3-F)][azaGly]L[Api](Gly(N-(3-F-4-Me-benzyl)))[4Pal]-NH2)
5,10 to 100,Cc1ccc(CNCC(=O)N2CCC(NC(=O)[C@H](CC(C)C)NC(=O)NNC(=O)[C@H](Cc3cccc(F)c3)NC(=O)[C@@H](NC(=O)[C@H](CC(N)=O)NC(=O)[C@H](CCC(=O)O)NC(=O)CN3CCN(CC(=O)O)CCN(CC(=O)O)CCN(CC(=O)O)CC3)[C@@H](C)O)(C(=O)N[C@@H](Cc3ccncc3)C(N)=O)CC2)cc1F [Compound 171] ({DOTA}-ENT[Phe(3-F)][azaGly]L[Api](Gly(N-(3-F-4-Me-benzyl)))[4Pal]-NH2)
6,< 10,Cc1ccc(CNCC(=O)N2CCC(NC(=O)[C@H](CC(C)C)NC(=O)NNC(=O)[C@H](Cc3ccccc3)NC(=O)CCCCCNC(=O)[C@H](Cc3ccc(O)cc3)NC(=O)CNC(=O)c3ccc(CNC(=O)CN4CCN(CC(=O)O)CCN(CC(=O)O)CCN(CC(=O)O)CC4)cc3)(C(=O)N[C@@H](Cc3c[nH]c4ccccc34)C(N)=O)CC2)cc1F [Compound 176] ({DOTA-4Amb}-GY[Ahx]F[azaGly]L[Api](Gly(N-(3-F-4-Me-benzyl)))W-NH2)
7,< 10,CCCCCCCC(=O)N[C@H](Cc1ccc(O)cc1)C(=O)N[C@@H](CCCCNC(=O)CN1CCN(CC(=O)O)CCN(CC(=O)O)CCN(CC(=O)O)CC1)C(=O)N[C@@H](CC(N)=O)C(=O)N[C@H](C(=O)N[C@@H](Cc1ccccc1)C(=O)NNC(=O)N[C@@H](CC(C)C)C(=O)NC1(C(=O)N[C@@H](Cc2c[nH]c3ccccc23)C(N)=O)CCN(C(=O)CNCc2ccc(C)c(F)c2)CC1)[C@@H](C)O [Compound 181] (Octanoyl-[dY]K(DOTA)NTF[azaGly]L[Api](Gly(N-(3-F-4-Me-benzyl)))W-NH2)
8,< 10,COCCOCCOCCOCCOCCOCCOCCOCCOCCOCCOCCOCCOCCOCCOCCOCCOCCOCCOCCOCCOCCOCCOCCOCCOCCC(=O)N[C@H](Cc1ccc(O)cc1)C(=O)N[C@@H](CCCCNC(=O)CN1CCN(CC(=O)O)CCN(CC(=O)O)CCN(CC(=O)O)CC1)C(=O)N[C@@H](CC(N)=O)C(=O)N[C@H](C(=O)N[C@@H](Cc1ccccc1)C(=O)NNC(=O)N[C@@H](CC(C)C)C(=O)NC1(C(=O)N[C@@H](Cc2c[nH]c3ccccc23)C(N)=O)CCN(C(=N)N)CC1)[C@@H](C)O [Compound 182] (X8-[dY]K(DOTA)NTF[azaGly]L[Api(1-amidino)]W-NH2)
9,< 10,CC(C)C[C@H](NC(=O)NNC(=O)[C@H](Cc1ccccc1)NC(=O)[C@@H](NC(=O)[C@H](CC(N)=O)NC(=O)[C@H](Cc1ccc(C(=O)c2ccccc2)cc1)NC(=O)[C@@H](Cc1ccc(O)cc1)NC(=O)CCCCCNC(=O)CN1CCN(CC(=O)O)CCN(CC(=O)O)CCN(CC(=O)O)CC1)[C@@H](C)O)C(=O)NC1(C(=O)N[C@@H](Cc2c[nH]c3ccccc23)C(N)=O)CCN(C(=N)N)CC1 [Compound 183] ({DOTA-Ahx}-[dY][Bpa]NTF[azaGly]L[Api(1-amidino)]W-NH2)
10,< 10,CC(C)C[C@H](NC(=O)NNC(=O)[C@H](Cc1ccccc1)NC(=O)[C@@H](NC(=O)[C@H](CC(N)=O)NC(=O)[C@H](Cc1c2ccccc2cc2ccccc12)NC(=O)[C@@H](Cc1ccc(O)cc1)NC(=O)CCCCCNC(=O)CN1CCN(CC(=O)O)CCN(CC(=O)O)CCN(CC(=O)O)CC1)[C@@H](C)O)C(=O)NC1(C(=O)N[C@@H](Cc2c[nH]c3ccccc23)C(N)=O)CCN(C(=N)N)CC1 [Compound 184] ({DOTA-Ahx}-[dY][Ala(9-anthryl)]NTF[azaGly]L[Api(1-amidino)]W-NH2)
11,< 10,CC(C)C[C@H](NC(=O)NNC(=O)[C@H](Cc1ccccc1)NC(=O)[C@@H](NC(=O)[C@H](CC(N)=O)NC(=O)[C@@H](Cc1ccc2ccccc2c1)NC(=O)[C@@H](Cc1ccc(O)cc1)NC(=O)CCCCCNC(=O)CN1CCN(CC(=O)O)CCN(CC(=O)O)CCN(CC(=O)O)CC1)[C@@H](C)O)C(=O)NC1(C(=O)N[C@@H](Cc2ccc(O)cc2)C(N)=O)CCN(C(=N)N)CC1 [Compound 185] ({DOTA-Ahx}-[dY][d2Nal]NTF[azaGly]L[Api(1-amidino)]Y-NH2)
12,< 10,Cc1ccc(CNCC(=O)N2CCC(NC(=O)[C@H](CC(C)C)NC(=O)NNC(=O)[C@H](Cc3ccccc3)NC(=O)CCCCCNC(=O)[C@@H](Cc3ccncc3)NC(=O)[C@@H](Cc3ccc(O)cc3)NC(=O)CN3CCN(CC(=O)O)CCN(CC(=O)O)CCN(CC(=O)O)CC3)(C(=O)N[C@@H](Cc3c[nH]c4ccccc34)C(N)=O)CC2)cc1F [Compound 186] ({DOTA}-[dY][d4Pal][Ahx]F[azaGly]L[Api](Gly(N-(3-F-4-Me-benzyl)))W-NH2)
13,10 to 100,CC(C)C[C@H](NC(=O)NNC(=O)[C@H](Cc1ccc(I)cc1)NC(=O)[C@@H](NC(=O)[C@H](CC(N)=O)NC(=O)[C@H](Cc1c2ccccc2cc2ccccc12)NC(=O)[C@@H](Cc1ccc(O)cc1)NC(=O)CN1CCN(CC(=O)O)CCN(CC(=O)O)CCN(CC(=O)O)CC1)[C@@H](C)O)C(=O)NC1(C(=O)N[C@@H](Cc2ccncc2)C(N)=O)CCN(C(=N)N)CC1 [Compound 188] ({DOTA}-[dY][Ala(9-anthryl)]NT[Phe(4-I)][azaGly]L[Api(1-amidino)][4Pal]-NH2)
14,> 100,CNC(=N)N1CCC(NC(=O)[C@H](CC(C)C)NC(=O)NNC(=O)[C@H](Cc2ccccc2)NC(=O)CCCCCNC(=O)CN2CCN(CC(=O)O)CCN(CC(=O)O)CCN(CC(=O)O)CC2)(C(=O)N[C@@H](Cc2c[nH]c3ccccc23)C(N)=O)CC1 [Compound 189] ({DOTA-Ahx}-F[azaGly]L[X3]W-NH2)
15,< 10,Cc1ccc(CNCC(=O)N2CCC(NC(=O)[C@H](CC(C)C)NC(=O)NNC(=O)[C@H](Cc3ccccc3)NC(=O)[C@H]3CC[C@H](CNC(=O)CN4CCN(CC(=O)O)CCN(CC(=O)O)CCN(CC(=O)O)CC4)CC3)(C(=O)N[C@@H](Cc3c[nH]c4ccccc34)C(N)=O)CC2)cc1F [Compound 192] ({DOTA-Trx}-F[azaGly]L[Api](Gly(N-(3-F-4-Me-benzyl)))W-NH2)
16,< 10,Cc1ccc(CNCC(=O)N2CCC(NC(=O)[C@H](CC(C)C)NC(=O)NNC(=O)[C@H](Cc3ccccc3)NC(=O)[C@@H](NC(=O)[C@H](CC(N)=O)NC(=O)[C@@H](Cc3ccncc3)NC(=O)[C@@H](Cc3ccc(O)cc3)NC(=O)CNC(=O)CN3CCN(CC(=O)O)CCN(CC(=O)O)CCN(CC(=O)O)CC3)[C@@H](C)O)(C(=O)N[C@@H](Cc3ccc(O)cc3)C(N)=O)CC2)cc1F [Compound 193] ({DOTA}-G[dY][d4Pal]NTF[azaGly]L[Api](Gly(N-(3-F-4-Me-benzyl)))Y-NH2)
17,< 10,Cc1ccc(CCC(=O)NCCOCCOCCC(=O)N[C@H](Cc2ccc(O)cc2)C(=O)N[C@@H](CCCCNC(=O)CN2CCN(CC(=O)O)CCN(CC(=O)O)CCN(CC(=O)O)CC2)C(=O)N[C@@H](CC(N)=O)C(=O)N[C@H](C(=O)N[C@@H](Cc2ccccc2)C(=O)NNC(=O)N[C@@H](CC(C)C)C(=O)NC2(C(=O)N[C@@H](Cc3c[nH]c4ccccc34)C(N)=O)CCN(C(=N)N)CC2)[C@@H](C)O)cc1 [Compound 195] ({Hydrocinnamoyl(4-Me)-PEG2}-[dY]K(DOTA)NTF[azaGly]L[Api(1-amidino)]W-NH2)
18,< 10,CC(C)C[C@H](NC(=O)NNC(=O)[C@H](Cc1ccccc1)NC(=O)[C@@H](NC(=O)[C@H](CC(N)=O)NC(=O)[C@H](CCCCNC(=O)CN1CCN(CC(=O)O)CCN(CC(=O)O)CCN(CC(=O)O)CC1)NC(=O)[C@@H](Cc1ccc(O)cc1)NC(=O)CCOCCOCCNC(=O)CCc1ccc(I)cc1)[C@@H](C)O)C(=O)NC1(C(=O)N[C@@H](Cc2c[nH]c3ccccc23)C(N)=O)CCN(C(=N)N)CC1 [Compound 196] ({Hydrocinnamoyl(4-I)-PEG2}-[dY]K(DOTA)NTF[azaGly]L[Api(1-amidino)]W-NH2)

row,SMILES,Ki [nM]
1,CSCC[C@H](NC(=O)c1ccc(CNC(=O)CN2CCN(CC(=O)O)CCN(CC(=O)O)CCN(CC(=O)O)CC2)cc1)C(=O)N[C@H](C(=O)NCc1ccc(C(=O)N[C@@H](CCSC)C(=O)N[C@H](C(=O)N[C@@H](CCCCNC(=O)CCCCC(=O)N[C@@H](CC(N)=O)C(=O)N[C@H](C(=O)N[C@@H](Cc2ccccc2)C(=O)NNC(=O)N[C@@H](CC(C)C)C(=O)NC2(C(=O)N[C@@H](Cc3c[nH]c4ccccc34)C(N)=O)CCN(C(=O)CNCc3ccc(C)c(F)c3)CC2)[C@@H](C)O)C(=O)O)C(C)C)cc1)C(C)C [Compound 167],< 10
